Patent publication US8163737B2 (Vertex Pharmaceuticals Incorporated, priority 2006, dated 2012)

Molecular target: endogenous CGRP receptor (Homo sapiens, UniProt O60894+Q16602)
Assay: CGRP functional antagonism using SK-N-MC-BLA (4C10), β-lactamase transcriptional reporter assay
Format: cell-based
Details: SK-N-MC (4C10) cells, inhibition of β-lactamase expression in the presence of 200 pM CGRP
Excerpt: Measuring CGRP Functional Antagonism Using SK-N-MC-BLA (4C10):
CGRP functional antagonism was characterized in a cell based transcriptional assay using a recombinant SK-N-MC line. To introduce the transcriptional reporter system, SK-N-MC cell line was transduced with a retroviral vector containing β-lactamase gene downstream of cAMP responsive promoter. The expression of β-lactamase is triggered by cAMP increase that is a downstream event of activation of endogenous CGRP receptor. Single clones were separated using Fluorescent Activated Cell Sorting (FACS) based on CGRP induced β-lactamase activity. β-lactamase activity was measured using a fluorescence energy transfer (FRET) dye, CCF4. […] To evaluate functional antagonist activity of compounds in SK-N-MC (4C10) line, compounds were evaluated for their inhibition of β-lactamase expression in the presence of CGRP.
SK-N-MC (4C10) was cultured in Minimal Essential Media (MEM) (Invitrogen) supplemented with 1 mM non-essential amino acids solution (Invitrogen), 100 units/ml Penicillin-Streptomycin (Invitrogen), 1 mM sodium pyruvate (Invitrogen) and 10% fetal bovine serum. For the β-lactamase assay, low serum, 1% FBS in MEM was used. 30,000 cells were plated into each wells of poly-D-lysine coated 384-well plate (Becton Dickinson) a day prior to the assay. SK-N-MC (4C10) was preincubated with compounds for 30 min before the addition of 200 pM CGRP. The assay was incubated for 3 hours at 37° C. to allow β-lactamase expression. CCF4 dye was added and incubated for 2 hours at room temperature. […] Curve fitting and IC50 calculation were carried about using MOD3.

Sequence of endogenous CGRP receptor (Q16602 23-461): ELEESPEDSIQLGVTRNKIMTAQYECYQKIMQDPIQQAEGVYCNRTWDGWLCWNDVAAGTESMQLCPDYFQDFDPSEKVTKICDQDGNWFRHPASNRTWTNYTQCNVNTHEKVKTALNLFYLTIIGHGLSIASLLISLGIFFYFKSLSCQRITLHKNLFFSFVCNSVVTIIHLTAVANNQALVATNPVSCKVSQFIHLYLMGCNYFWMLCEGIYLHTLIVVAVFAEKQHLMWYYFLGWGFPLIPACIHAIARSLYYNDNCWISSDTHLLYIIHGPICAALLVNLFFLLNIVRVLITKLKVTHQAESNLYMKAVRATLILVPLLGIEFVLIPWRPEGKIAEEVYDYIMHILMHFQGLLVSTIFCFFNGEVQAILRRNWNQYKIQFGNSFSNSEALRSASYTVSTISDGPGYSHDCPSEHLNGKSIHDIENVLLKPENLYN
Sequence of endogenous CGRP receptor (O60894 27-148): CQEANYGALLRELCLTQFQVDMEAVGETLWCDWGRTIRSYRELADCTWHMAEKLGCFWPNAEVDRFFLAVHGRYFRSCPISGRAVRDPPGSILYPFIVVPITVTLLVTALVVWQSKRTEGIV

SMILES	IC50
CC(C)CCN1C(=O)C(CC(=O)N2CCC(n3c(=O)[nH]c4ccccc43)CC2)SC1c1ccccc1-n1cccn1 (stereo not shown) [Compound 291]	< 1000 nM
CN1CCN(c2ccccc2C2SC(CC(=O)N3CCC(N4CCc5ccccc5NC4=O)CC3)C(=O)N2CCC(C)(C)C)CC1 (stereo not shown) [Compound 34]	< 1000 nM
CC(C)CCN1C(=O)C(CC(=O)N2CCC3(CC2)OC(=O)Nc2ccccc23)SC1c1ccccc1 (stereo not shown) [Compound 223]	> 5000 nM
CC(C)(C)CCN1C(=O)C(CC(=O)N2CCC(Nc3ccc(Cl)cc3)CC2)SC1c1cccc(F)c1N1CCN(C(C)(C)C)CC1 (stereo not shown) [Compound 448]	< 1000 nM
CN(C)C1CCN(c2ccccc2C2SC(CC(=O)N3CCC(N4CCc5ccccc5NC4=O)CC3)C(=O)N2CCC(C)(C)C)CC1 (stereo not shown) [Compound 419]	1000 to 5000 nM
CC(=O)Nc1ccc(C)cc1C1(O)CCN(C(=O)CC2SC(c3ccccc3)N(CCC(C)C)C2=O)CC1 (stereo not shown) [Compound 143]	> 5000 nM
CN1CCN(c2ccccc2C2SC(CC(=O)N3CCC(CO)CC3)C(=O)N2CCC(C)(C)C)CC1 (stereo not shown) [Compound 85]	> 5000 nM
CC(C)CCN1C(=O)C(CC(=O)N2CCC3(CC2)C(=O)N(C)c2ccccc23)SC1c1ccccc1 (stereo not shown) [Compound 29]	> 5000 nM
CC(C)(C)CCN1C(=O)C(CC(=O)N2CCC(N3Cc4ccccc4NC3=O)CC2)SC1c1cccc2cc[nH]c12 (stereo not shown) [Compound 94]	> 5000 nM
O=C(CC1SC(c2ccccc2)N(CCc2ccccc2)C1=O)N1CCC(N2CCc3ccccc3NC2=O)CC1 (stereo not shown) [Compound 231]	< 1000 nM
CN1C(=O)C(CC(=O)N2CCC(N3CCc4ccccc4NC3=O)CC2)SC1c1ccccc1 (stereo not shown) [Compound 132]	1000 to 5000 nM
CC(C)(C)CCN1C(=O)C(CC(=O)N2CCC(N3CCc4ccccc4NC3=O)CC2)SC1c1cccc(F)c1N1CC(F)(C2CC2)C1 (stereo not shown) [Compound 411]	1000 to 5000 nM
C=CCN1C(=O)C(CC(=O)N2CCC(N3Cc4ccccc4NC3=O)CC2)SC1c1ccccc1 (stereo not shown) [Compound 254]	1000 to 5000 nM
O=C(CC1SC(c2ccccc2)N(CC2CC2)C1=O)N1CCC(N2CCc3ccccc3NC2=O)CC1 (stereo not shown) [Compound 138]	< 1000 nM
CN1CCN(c2ccc(F)cc2C2SC(CC(=O)N3CCC(N4CCc5ccccc5NC4=O)CC3)C(=O)N2CCC(C)(C)C)CC1 (stereo not shown) [Compound 352]	< 1000 nM
CC(C)(C)CCN1C(=O)C(CC(=O)N2CCC(N3Cc4ccccc4NC3=O)CC2)SC12c1ccccc1-c1ccccc12 (stereo not shown) [Compound 309]	1000 to 5000 nM
CC(C)CCN1C(=O)C(CC(=O)N2CCC(N3CCc4ccccc4NC3=O)CC2)SC1c1c(F)cccc1Cl (stereo not shown) [Compound 221]	< 1000 nM
CC(C)(C)CCN1C(=O)[C@H](CC(=O)N2CCC(n3c(=O)[nH]c4ncccc43)CC2)S[C@H]1c1cccc(F)c1N1CCNCC1 [Compound 546]	< 1000 nM
CC1=CCCC(C)C1C1SC(CC(=O)N2CCC(N3CCc4ccccc4NC3=O)CC2)C(=O)N1CCC(C)C (stereo not shown) [Compound 181]	< 1000 nM
CC(C)N1CCN(c2ncccc2C2S[C@@H](CC(=O)N3CCC(n4c(=O)[nH]c5ncccc54)CC3)C(=O)N2CCC(C)(C)C)CC1 (stereo partly shown) [Compound 443]	< 1000 nM

SMILES	IC50
CC(C)CCN1C(=O)C(CC(=O)N2CCC(N3CCc4ccccc4NC3=O)CC2)SC1[C@@H](C)c1ccccc1 (stereo partly shown) [Compound 11]	< 1000 nM
CC(C)CCN1C(=O)C(CC(=O)N2CCC(N3Cc4ccccc4NC3=O)CC2)SC12CCC(C(F)(F)F)CC2 (stereo not shown) [Compound 253]	1000 to 5000 nM
CC(C)CCN1C(=O)C(CC(=O)N2CCC(N3Cc4ccccc4NC3=O)CC2)SC1c1ccc2c(c1)OCCN2C (stereo not shown) [Compound 232]	1000 to 5000 nM
CN1CCCN(c2ccccc2C2SC(CC(=O)N3CCC(N4Cc5ccccc5NC4=O)CC3)C(=O)N2CCC(C)(C)C)CC1 (stereo not shown) [Compound 369]	1000 to 5000 nM
CC(=O)Nc1ccc(C2SC(CC(=O)N3CCC(N4Cc5ccccc5NC4=O)CC3)C(=O)N2CCC(C)C)cc1 (stereo not shown) [Compound 213]	1000 to 5000 nM
CC(C)(C)CC1SC(CC(=O)N2CCC(n3c(=O)[nH]c4ncccc43)CC2)C(=O)N1c1ccccc1 (stereo not shown) [Compound 417]	1000 to 5000 nM
CC(C)(C)CCN1C(=O)C(CC(=O)N2CCC(N3Cc4ccccc4NC3=O)CC2)SC1c1ccc(F)cc1F (stereo not shown) [Compound 234]	< 1000 nM
CC(C)CCN1C(=O)C(CC(=O)N2CCC(n3c(=O)[nH]c4ncccc43)CC2)SC1c1ccccc1N1CCN(C)CC1 (stereo not shown) [Compound 59]	< 1000 nM
CN(C)[C@H]1CCN(c2ccccc2C2SC(CC(=O)N3CCC(n4c(=O)[nH]c5ncccc54)CC3)C(=O)N2CCC(C)(C)C)C1 (stereo partly shown) [Compound 404]	1000 to 5000 nM
CC(C)N1CCN(c2c(F)cccc2[C@H]2S[C@@H](CC(=O)N3CCC(N4CCc5ccccc5NC4=O)CC3)C(=O)N2CCC(C)(C)C)CC1 [Compound 396]	1000 to 5000 nM
CN1CCN(c2cc(F)ccc2C2SC(CC(=O)N3CCC(n4c(=O)[nH]c5ncccc54)CC3)C(=O)N2CCC(C)(C)C)CC1 (stereo not shown) [Compound 362]	1000 to 5000 nM
CC(C)(C)CCN1C(=O)C(CC(=O)N2CCC(N3Cc4ccccc4NC3=O)CC2)SC1c1ccccc1N1CCCCC1 (stereo not shown) [Compound 235]	1000 to 5000 nM
O=C(CC1SC(c2ccccc2)N(Cc2ccncc2)C1=O)N1CCC(n2c(=O)[nH]c3ccccc32)CC1 (stereo not shown) [Compound 108]	> 5000 nM
CC(C)(C)CCN1C(=O)C(CC(=O)N2CCC(n3c(=O)[nH]c4ncccc43)CC2)SC1c1cccc(F)c1N1CCN(C2CC2)CC1 (stereo not shown) [Compound 390]	> 5000 nM
O=C(CC1SC(c2ccccc2)N(CC(F)(F)C(F)(F)F)C1=O)N1CCC(N2Cc3ccccc3NC2=O)CC1 (stereo not shown) [Compound 36]	< 1000 nM
CC(=O)N1CC2(CCN(C(=O)CC3SC(c4ccccc4)N(CCC(C)C)C3=O)CC2)c2cc(C(C)C)ccc21 (stereo not shown) [Compound 27]	> 5000 nM
CC(C)(C)CCN1C(=O)C(CC(=O)N2CCC(n3c(=O)[nH]c4ncccc43)CC2)SC1c1cccc(F)c1N1CCN(CC(F)(F)F)CC1 (stereo not shown) [Compound 393]	< 1000 nM
CC(C)(C)CCN1C(=O)[C@H](CC(=O)N2CCC(O)(c3ccc(F)cc3)CC2)SC1c1cccc(F)c1N1CCN(C(C)(C)C)CC1 (stereo partly shown) [Compound 454]	> 5000 nM
CN(C)C1CCN(c2ccccc2C2SC(CC(=O)N3CCC(n4c(=O)[nH]c5ncccc54)CC3)C(=O)N2CCC(C)(C)C)CC1 (stereo not shown) [Compound 418]	> 5000 nM
CCC(CC)C1SC(CC(=O)N2CCC(N3Cc4ccccc4NC3=O)CC2)C(=O)N1CCC(C)C (stereo not shown) [Compound 151]	< 1000 nM

SMILES	IC50
Cc1c(F)cccc1C1SC(CC(=O)N2CCC(N3Cc4ccccc4NC3=O)CC2)C(=O)N1CCC(C)C (stereo not shown) [Compound 267]	< 1000 nM
CC(C)CCN1C(=O)C(CC(=O)N2CCC(n3c(=O)[nH]c4ccccc43)CC2)SC1c1ccccc1N1CCCCC1 (stereo not shown) [Compound 292]	1000 to 5000 nM
O=C(CC1SC(C2CCCCC2)N(c2ccc(N3CCOCC3)cc2)C1=O)N1CCC(N2CCc3ccccc3NC2=O)CC1 (stereo not shown) [Compound 421]	< 1000 nM
CC(C)CCN1C(=O)C(CC(=O)N2CCC(N3CCc4ccccc4NC3=O)CC2)SC1[C@H](C)c1ccccc1 (stereo partly shown) [Compound 180]	1000 to 5000 nM
CC(C)CCN1C(=O)C(CC(=O)N2CCC(N3C(=O)Cc4ccccc43)CC2)SC1c1ccccc1 (stereo not shown) [Compound 270]	> 5000 nM
O=C(CC1SC(c2ccc(F)cc2F)N(CC2CCCCC2)C1=O)N1CCC(N2Cc3ccccc3NC2=O)CC1 (stereo not shown) [Compound 137]	< 1000 nM
CN(C)CCCN(C)c1ccccc1C1SC(CC(=O)N2CCC(N3CCc4ccccc4NC3=O)CC2)C(=O)N1CCC(C)(C)C (stereo not shown) [Compound 385]	1000 to 5000 nM
CC(C)(C)CCN1C(=O)C(CC(=O)N2CCC(N3CCc4ccccc4NC3=O)CC2)SC1c1ccccc1N1CCN(CCO)CC1 (stereo not shown) [Compound 372]	> 5000 nM
CC(C)(C)CCN1C(=O)[C@H](CC(=O)N2CCC(n3c(=O)[nH]c4ncccc43)CC2)S[C@H]1c1cccc(F)c1N1CCC(N2CCCCC2)CC1 [Compound 441]	< 1000 nM
O=C(CC1SC(C2CCOCC2)N(c2ccccc2)C1=O)N1CCC(N2CCc3ccccc3NC2=O)CC1 (stereo not shown) [Compound 420]	> 5000 nM
CC(C)(C)CCN1C(=O)[C@H](CC(=O)N2CCC(N3CCc4ccccc4NC3=O)CC2)SC1c1cccc(F)c1N1CCC(N)C1 (stereo partly shown) [Compound 466]	< 1000 nM
CN1CCN(c2ccccc2[C@H]2SC(CC(=O)N3CCCCC3)C(=O)N2CCC(C)(C)C)CC1 (stereo partly shown) [Compound 97]	> 5000 nM
COc1ccc(C2SC(CC(=O)N3CCC(N4Cc5ccccc5NC4=O)CC3)C(=O)N2CCC(C)C)cc1 (stereo not shown) [Compound 272]	1000 to 5000 nM
CC(C)(C)CCN1C(=O)C(CC(=O)N2CCC(N3CCc4ccccc4NC3=O)CC2)SC1c1cccc(F)c1N1CCN(CC(F)(F)F)CC1 (stereo not shown) [Compound 392]	> 5000 nM
CC(C)CCN1C(=O)C(CC(=O)N2CCC(N3Cc4ccccc4NC3=O)CC2)SC1c1ccccc1N(C)C (stereo not shown) [Compound 121]	< 1000 nM
CC(C)(C)CCN1C(=O)C(CC(=O)N2CCC(N3Cc4ccccc4NC3=O)CC2)SC1c1ccccc1F (stereo not shown) [Compound 252]	< 1000 nM
CC(C)CCN1C(=O)C(CC(=O)N2CCC(N3CCc4ccccc4NC3=O)CC2)SC1C1CCCOC1 (stereo not shown) [Compound 239]	< 1000 nM
CC(C)CCN1C(=O)C(CC(=O)N2CCC(N3Cc4ccccc4NC3=O)CC2)SC1c1ccc(Br)cc1 (stereo not shown) [Compound 242]	1000 to 5000 nM
